Assay results taken from patent US7700300B2, “Screening of compounds for GAT2 transporter activity” (XenoPort, Inc., priority 2005, dated 2010).

Experiments:
hGAT2 = molecular target: T1, hGAT2 (Homo sapiens, UniProt Q9NSD5); test: hGAT2 competition uptake assay with 3H-GABA in HEK-TREx-hGAT2 cells; type: cell-based
T1 construct: expressed in transfected cells; host or cells: HEK-TREx cells (HEK-TREx-GAT2 inducible cell line)
T1 sequence (Q9NSD5 1-602): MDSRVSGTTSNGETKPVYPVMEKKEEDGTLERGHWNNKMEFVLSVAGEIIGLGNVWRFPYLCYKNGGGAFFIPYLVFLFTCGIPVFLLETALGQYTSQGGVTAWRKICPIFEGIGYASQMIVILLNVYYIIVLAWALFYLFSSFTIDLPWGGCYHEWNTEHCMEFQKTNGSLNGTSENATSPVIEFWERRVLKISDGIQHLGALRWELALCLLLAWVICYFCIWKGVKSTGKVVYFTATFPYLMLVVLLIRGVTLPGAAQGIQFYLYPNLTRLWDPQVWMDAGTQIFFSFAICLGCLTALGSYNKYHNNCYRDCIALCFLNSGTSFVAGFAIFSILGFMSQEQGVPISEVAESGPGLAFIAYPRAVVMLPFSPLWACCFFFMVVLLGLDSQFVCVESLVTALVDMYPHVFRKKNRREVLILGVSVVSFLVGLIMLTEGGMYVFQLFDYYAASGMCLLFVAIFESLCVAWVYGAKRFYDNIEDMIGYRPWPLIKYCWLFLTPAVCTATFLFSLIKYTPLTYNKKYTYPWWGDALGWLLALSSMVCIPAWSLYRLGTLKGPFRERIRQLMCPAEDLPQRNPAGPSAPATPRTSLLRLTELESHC
Method: A modified competition uptake assay can be developed to determine the ability of a test compound(s) to inhibit the uptake of radiolabeled substrates into HEK-TREx-hGAT2 cells induced to over-express hGAT2. The results can be stated as affinities (IC50).
The competition uptake assay is prepared as follows: Compounds are prepared for assay by diluting a 100 mM stock concentration (in DMSO) to the appropriate working concentration. Typically, seven-point dose response curves are prepared starting at a final assay concentration of 1 mM and carrying out three-fold dilutions. […]
Scintillation fluid (200 μl) (Optiphase Supermix (Perkin Elmer) is added to each well, and the plate is covered with a 96-well adhesive plate cover and placed on a shaker for 10 minutes. The plates are counted on a 96-well plate scintillation counter for 60 sec/well. The data are analyzed using a sigmoidal dose response curve-fitting program (Prism, GraphPad, Inc, San Diego, Calif.; equation: one-site competition).
FIG. 2 depicts the results of a competition experiment using HEK-TREx-GAT2 cells. ^3H-GABA was used as the substrate and unlabeled GABA was used as the competitor. […] Non-specific uptake was determined by measuring the uptake into cells not induced to express the transporter (“no tet”). […]

PgP = molecular target: T2, PgP (Homo sapiens, UniProt P08183); test: Transwell monolayer efflux assay in MDCK cells with TREx-PgP; type: cell-based; conditions: 2.5 nM 3H-vinblastine, 250 μM verapamil
T2 construct: expressed in transfected cells; host or cells: MDCK cells
T2 sequence (P08183 whole entry): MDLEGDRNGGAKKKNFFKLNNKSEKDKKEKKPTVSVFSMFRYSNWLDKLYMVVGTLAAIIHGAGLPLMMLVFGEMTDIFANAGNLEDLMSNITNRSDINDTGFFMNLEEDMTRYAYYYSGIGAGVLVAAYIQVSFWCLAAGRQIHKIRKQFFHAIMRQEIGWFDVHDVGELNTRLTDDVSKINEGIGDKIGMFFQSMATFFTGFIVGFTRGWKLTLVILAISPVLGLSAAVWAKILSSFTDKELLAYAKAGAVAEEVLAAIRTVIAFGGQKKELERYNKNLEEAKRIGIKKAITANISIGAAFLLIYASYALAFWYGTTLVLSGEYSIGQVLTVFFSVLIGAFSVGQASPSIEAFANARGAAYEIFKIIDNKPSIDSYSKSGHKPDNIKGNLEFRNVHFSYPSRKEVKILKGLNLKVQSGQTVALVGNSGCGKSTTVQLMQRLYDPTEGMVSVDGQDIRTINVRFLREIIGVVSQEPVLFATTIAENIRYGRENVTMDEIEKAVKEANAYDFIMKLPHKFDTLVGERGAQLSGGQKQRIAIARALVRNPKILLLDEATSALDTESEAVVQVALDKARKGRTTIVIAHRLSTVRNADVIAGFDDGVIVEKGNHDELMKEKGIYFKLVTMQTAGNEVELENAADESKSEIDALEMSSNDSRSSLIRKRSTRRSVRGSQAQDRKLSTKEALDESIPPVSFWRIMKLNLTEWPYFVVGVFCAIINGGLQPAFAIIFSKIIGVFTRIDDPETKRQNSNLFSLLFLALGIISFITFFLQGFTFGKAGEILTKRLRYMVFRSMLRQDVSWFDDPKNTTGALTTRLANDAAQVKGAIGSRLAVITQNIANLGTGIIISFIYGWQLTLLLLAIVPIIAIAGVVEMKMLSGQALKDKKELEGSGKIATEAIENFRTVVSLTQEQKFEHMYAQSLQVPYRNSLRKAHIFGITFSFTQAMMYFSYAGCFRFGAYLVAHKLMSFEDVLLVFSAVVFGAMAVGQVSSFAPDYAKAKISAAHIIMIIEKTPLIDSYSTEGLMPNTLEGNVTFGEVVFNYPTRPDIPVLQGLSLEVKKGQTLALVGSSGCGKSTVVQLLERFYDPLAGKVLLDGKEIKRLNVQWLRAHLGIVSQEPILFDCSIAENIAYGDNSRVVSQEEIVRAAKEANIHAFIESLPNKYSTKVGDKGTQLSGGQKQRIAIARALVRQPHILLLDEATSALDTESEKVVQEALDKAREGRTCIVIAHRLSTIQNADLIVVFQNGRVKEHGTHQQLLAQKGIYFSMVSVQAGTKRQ
Method: Transwell monolayer efflux assays can be performed by transfecting MDCK cells with the tetracycline-inducible TREx-PgP expression vector. The cells optionally can be transfected with a nucleic acid encoding the transporter of interest. The transfected cells are seeded on polycarbonate filter membranes in transwell dishes and grown for 3-5 days, yielding a polarized monolayer with tight junctions between cells.

With `NCCCC(=O)O` [GABA, gamma-aminobutyric acid] as the compound, how does the “uptake of labeled GABA as concentration of unlabeled GABA increased” value (hGAT2; HEK-TREx-GAT2 cells induced to express GAT2, FIG. 2) read?
The value was “decreased”.

What about the IC50 (hGAT2; HEK-TREx-GAT2 cells induced to express hGAT2, 3H-GABA as substrate) of the same compound?
Its IC50 is 13 µM.

Which “Apical to basolateral transport in the presence of verapamil” value (PgP) does the source give for `CC[C@]1(O)C[C@@H]2CN(CCc3c([nH]c4ccccc34)[C@@](C(=O)OC)(c3cc4c(cc3OC)N(C)[C@H]3[C@@](O)(C(=O)OC)[C@H](OC(C)=O)[C@]5(CC)C=CCN6CC[C@]43[C@@H]65)C2)C1` [^3H-vinblastine, vinblastine] here?
Its value is “strongly increased”.

And the “Basolateral to apical transport in the presence of verapamil” value (PgP)?
Its value is “strongly decreased”.
